For series [1], the system named is rat. The conditions noted are these: Sub-acute repeat dose toxicity, sprague dawley, Oral, Gavage/Intubation, dose end: 14 day, group: systemic.
For series [2], the system named is rat. The conditions noted are these: Sub-acute repeat dose toxicity, sprague dawley, Oral, Gavage/Intubation, dose end: 14 day, group: systemic. This is another data set of the same source.
Series [3] deals with primate. Conditions: Sub-acute repeat dose toxicity; Oral; Gavage/Intubation; dose end: 15 day; group: systemic; systemic / in life observation / clinical signs / emesis.
Series [4] deals with primate. Conditions: Sub-acute repeat dose toxicity, Oral, Gavage/Intubation, dose end: 14 day, group: systemic.
Series [5] concerns dog. The conditions noted are these: Sub-acute repeat dose toxicity, beagle, Oral, Gavage/Intubation, dose end: 10 day, group: systemic.
Series [6] has as its system primate. The conditions noted are these: Sub-acute repeat dose toxicity; Oral; Gavage/Intubation; dose end: 20 day; group: systemic; systemic / in life observation / clinical signs / emesis.
For series [7], the system named is primate. Conditions: Subchronic oral toxicity in nonrodent, macaque, Gavage/Intubation, dose end: 13 week.
Series [8] deals with rat. Conditions: Sub-acute repeat dose toxicity, wistar, Oral, Gavage/Intubation, dose end: 33 day, group: systemic.
The subject of series [9] is mouse. The conditions noted are these: Combined chronic toxicity/carcinogenicity, cd1, Oral, Gavage/Intubation, dose end: 104 week, group: systemic.
In series [10] the test system is rat. Conditions: Chronic toxicity; wistar; Oral; Gavage/Intubation; dose end: 27 week; group: systemic; systemic / clinical chemistry / bile acids / bile acids + systemic / clinical chemistry / cholesterol / cholesterol + systemic / clinical ….
Series [11] deals with rat. Conditions: Combined chronic toxicity/carcinogenicity; wistar; Oral; Gavage/Intubation; dose end: 104 week; group: systemic; systemic / in life observation / mortality / mortality + systemic / pathology microscopic / intestine large / [other] + systemic / pathology….
Series [12] has as its system rat. Conditions: Combined chronic toxicity/carcinogenicity, sprague dawley, Oral, Feed, dose end: 24 month, group: systemic.
The test system of series [13] is mouse. Conditions: Carcinogenicity; cd1; Oral; Feed; dose end: 78 week; group: systemic; systemic / pathology microscopic / kidney / nephropathy.
Series [14] concerns dog. The conditions noted are these: Chronic toxicity, beagle, Oral, Capsule, dose end: 52 week, group: systemic.
For series [15], the system named is dog. The conditions noted are these: Subchronic oral toxicity in nonrodent, beagle, Feed, dose end: 90 day, group: systemic.
Series [16] has as its system rat. The conditions noted are these: Subchronic oral toxicity in rodents, sprague dawley, Feed, dose end: 90 day, group: systemic.
Series [17] deals with rat. The conditions noted are these: Multigenerational reproductive toxicity study, sprague dawley, Oral, Feed, dose end: 2 generation.
Series [18] concerns rat. Conditions: Prenatal developmental toxicity study, sprague dawley, Oral, Gavage/Intubation, dose end: 17 GD.
The subject of series [19] is rat. Conditions: Prenatal developmental toxicity study, sprague dawley, Injection, Intramuscular, dose end: 13 GD, group: developmental.
In series [20] the test system is rat. Conditions: Subchronic oral toxicity in rodents, wistar, Feed, dose end: 13 week, group: systemic.
Where [21] appears, read: systemic / clinical chemistry / albumin / albumin + systemic / clinical chemistry / globulins / globulins + systemic / clinical chemistry / ….
Where [22] appears, read: systemic / in life observation / clinical signs / salivation.
Setting [23] is: systemic / clinical chemistry / albumin / albumin + systemic / clinical chemistry / cholesterol / cholesterol + systemic / hematology / ….
Where [24] appears, read: systemic / clinical chemistry / alanine aminotransferase (alt/sgpt) / alanine aminotransferase (alt/sgpt) + systemic / clinical chemistry / ….
The mark [25] stands for this setting: systemic / in life observation / clinical signs / emesis + systemic / in life observation / clinical signs / reduced activity.
Setting [26] is: systemic / in life observation / clinical signs / emesis.
Where [27] appears, read: systemic / in life observation / clinical signs / emesis + systemic / in life observation / clinical signs / abnormal feces.
Setting [28] is: group: maternal, reproductive / reproductive performance / estrous cycle / abnormal.
[29] abbreviates: group: systemic, systemic / clinical chemistry / gamma glutamyl transferase (ggt) / gamma glutamyl transferase (ggt) + systemic / clinical chemistry / ….
Setting [30] is: systemic / clinical chemistry / albumin / albumin + systemic / clinical chemistry / chloride / chloride + systemic / clinical chemistry / ….
Where [31] appears, read: systemic / clinical chemistry / potassium / potassium + systemic / clinical chemistry / triglycerides / triglycerides + systemic / organ ….
The mark [32] stands for this setting: systemic / pathology microscopic / gallbladder / adenoma + systemic / pathology microscopic / gallbladder / hemangioma + systemic / ….
Setting [33] is: systemic / pathology microscopic / gallbladder / adenoma + systemic / pathology microscopic / gallbladder / hyperplasia + systemic / ….
Setting [34] is: systemic / clinical chemistry / gamma glutamyl transferase (ggt) / gamma glutamyl transferase (ggt).
[35] abbreviates: systemic / in life observation / body weight / body weight gain + systemic / organ weight / liver / relative to body weight + systemic / ….
The mark [36] stands for this setting: systemic / clinical chemistry / lipids / phospholipids.
Setting [37] is: systemic / clinical chemistry / aspartate aminotransferase (ast/sgot) / aspartate aminotransferase (ast/sgot) + systemic / clinical ….
Setting [38] is: systemic / clinical chemistry / cholesterol / cholesterol + systemic / clinical chemistry / lipids / phospholipids + systemic / hematology….
[39] abbreviates: group: offspring, systemic / in life observation / body weight / offspring (pup) weight.
[40] abbreviates: group: parental, systemic / in life observation / body weight / body weight + systemic / in life observation / body weight / body weight gain + systemic / in….
[41] abbreviates: group: developmental, developmental / developmental malformation / bone / [other].
[42] abbreviates: group: developmental, developmental / developmental malformation / bone / [other] + developmental / developmental malformation / other / other + developmental / ….
Where [43] appears, read: group: maternal, systemic / in life observation / body weight / body weight + systemic / in life observation / body weight / body weight gain + systemic / in….
The mark [44] stands for this setting: developmental / developmental malformation / mouth / jaw / cleft palate.
Where [45] appears, read: developmental / developmental malformation / mouth / jaw / cleft palate + systemic / in life observation / body weight / fetal weight.
The mark [46] stands for this setting: systemic / in life observation / clinical signs / lack of coordination + systemic / in life observation / clinical signs / voluntary muscle ….

The source of these data is EPA's ToxRefDB 2.

In the case of `CC(C)(O)c1ccc(CNC(=O)c2cccnc2Oc2ccc3nonc3c2)cc1`, the LOAEL (as a rule, the lowest dose or exposure tested at which an adverse effect was seen) with rat [1] (setting [21]) was above 160 mg/kg/day; with rat [2] (setting [23]), above 125 mg/kg/day; with primate [3], above 50 mg/kg/day; in the series on primate [4] (setting [24]), above 1000 mg/kg/day; in the series on dog [5] (setting [27]), above 250 mg/kg/day; in the series with primate [6] it was above 300 mg/kg/day. For the same compound, the NOAEL (commonly the highest tested level that showed no adverse finding) with rat [1] (setting [21]) was at least 160 mg/kg/day; in the series on rat [2] (setting [23]) it was at least 125 mg/kg/day; in the series on primate [3], at least 50 mg/kg/day; in the series with primate [4] (setting [24]), at least 1000 mg/kg/day; in the series on dog [5] (setting [27]) it was at least 250 mg/kg/day; in the series on primate [6], at least 300 mg/kg/day. In addition, the LEL in the series with rat [1] (setting [22]) came out at 5 mg/kg/day; in the series on rat [2] (systemic / pathology microscopic / mesentery / inflammation) it was 25 mg/kg/day; with primate [3], 5 mg/kg/day; in the series on primate [4] (setting [25]), 20 mg/kg/day; with dog [5] (setting [26]) it was 10 mg/kg/day; in the series with primate [6], 20 mg/kg/day. The NEL in the series with rat [1] (setting [22]) is below 5 mg/kg/day; in the series with rat [2] (setting [23]), 5 mg/kg/day; in the series with primate [3] it was 1 mg/kg/day; in the series with primate [4] (setting [25]) it was below 20 mg/kg/day; in the series with dog [5] (setting [26]), below 10 mg/kg/day; with primate [6] it was below 20 mg/kg/day.

Take `Cc1oc(-c2ccccc2)nc1CCOc1ccc(C[C@H](Nc2ccccc2C(=O)c2ccccc2)C(=O)O)cc1` [Farglitazar]: the LEL in the series on primate [7] (setting [28]) worked out at 50 mg/kg/day; with primate [7] (setting [29]), 0.5 mg/kg/day; in the series with rat [8] (setting [31]) it was 0.5 mg/kg/day; in the series on mouse [9] (setting [33]) it was 1 mg/kg/day; in the series with rat [10] it was 0.5 mg/kg/day; with rat [11], 0.5 mg/kg/day. The LOAEL with primate [7] (setting [28]) is above 50 mg/kg/day; in the series with primate [7] (setting [29]), above 50 mg/kg/day; in the series on rat [8] (setting [30]) it was above 500 mg/kg/day; in the series on mouse [9] (setting [32]), above 50 mg/kg/day; with rat [10] it was above 50 mg/kg/day; in the series on rat [11], above 20 mg/kg/day. In addition, the NEL with primate [7] (setting [28]) was 5 mg/kg/day; with primate [7] (setting [29]), below 0.5 mg/kg/day; in the series on rat [8] (setting [31]) it was below 0.5 mg/kg/day; in the series with mouse [9] (setting [33]) it was below 1 mg/kg/day; in the series with rat [10], below 0.5 mg/kg/day; in the series on rat [11], below 0.5 mg/kg/day. For the same compound, the NOAEL with primate [7] (setting [28]) was at least 50 mg/kg/day; in the series on primate [7] (setting [29]) it was at least 50 mg/kg/day; in the series with rat [8] (setting [30]), at least 500 mg/kg/day; in the series on mouse [9] (setting [32]), at least 50 mg/kg/day; in the series on rat [10], at least 50 mg/kg/day; in the series on rat [11], at least 20 mg/kg/day.

For `CC(COc1ccc(Oc2ccccc2)cc1)Oc1ccccn1` (configuration not stated) [Pyriproxyfen], the LEL was 7.04 mg/kg/day in the series on rat [12] (setting [34]); 420 mg/kg/day in the series with mouse [13]; 100 mg/kg/day with dog [14] (systemic / in life observation / body weight / body weight gain + systemic / clinical chemistry / cholesterol / cholesterol + systemic / …); 100 mg/kg/day in the series with dog [15] (setting [36]); 23.5 mg/kg/day in the series on rat [16] (setting [37]); 453 mg/kg/day with rat [17] (setting [39]). Further, the LEL with rat [17] (group: parental, systemic / organ weight / liver / relative to body weight + systemic / pathology microscopic / kidney / inflammation + systemic / organ …) is 87 mg/kg/day; in the series with rat [18] (setting [41]), 300 mg/kg/day; with rat [18] (setting [43]) it was 300 mg/kg/day. In addition, the NEL in the series on rat [12] (setting [34]) is below 7.04 mg/kg/day; with mouse [13], 84 mg/kg/day; with dog [14] (setting [35]), 30 mg/kg/day; in the series with dog [15] (setting [36]), below 100 mg/kg/day; in the series on rat [16] (setting [37]), below 23.5 mg/kg/day; in the series with rat [17] (setting [39]), 87 mg/kg/day. In addition, the NEL in the series with rat [17] (setting [40]) worked out at 18 mg/kg/day; in the series on rat [18] (setting [42]), 100 mg/kg/day; in the series on rat [18] (setting [43]), 100 mg/kg/day. For the same compound, the NOAEL was determined as 35.1 mg/kg/day in the series with rat [12] (systemic / clinical chemistry / gamma glutamyl transferase (ggt) / gamma glutamyl transferase (ggt) + systemic / in life observation / body …); 84 mg/kg/day with mouse [13]; 100 mg/kg/day with dog [14] (setting [35]); 100 mg/kg/day in the series on dog [15] (systemic / pathology microscopic / liver / hypertrophy + systemic / clinical chemistry / alpha-1 globulin / alpha-1 globulin + systemic / …); 23.5 mg/kg/day in the series with rat [16] (setting [38]); 87 mg/kg/day in the series on rat [17] (setting [39]). The values for the NOAEL with rat [17] (setting [40]), in the series with rat [18] (setting [42]) and in the series on rat [18] (setting [43]) were 87 mg/kg/day, 100 mg/kg/day and 100 mg/kg/day, respectively. Besides, the LOAEL was 183 mg/kg/day in the series on rat [12] (systemic / in life observation / body weight / body weight); 420 mg/kg/day with mouse [13]; 300 mg/kg/day in the series with dog [14] (systemic / in life observation / body weight / body weight gain + systemic / organ weight / liver / relative to body weight); 300 mg/kg/day in the series with dog [15] (systemic / pathology microscopic / liver / hypertrophy + systemic / organ weight / liver / absolute + systemic / organ weight / liver / …); 118 mg/kg/day with rat [16] (setting [38]); 453 mg/kg/day in the series with rat [17] (setting [39]). The LOAEL in the series on rat [17] (setting [40]) is 453 mg/kg/day; in the series on rat [18] (setting [41]) it was 300 mg/kg/day; with rat [18] (setting [43]), 300 mg/kg/day.

For `C[C@]12C=CC(=O)C=C1CC[C@H]1[C@@H]3C[C@@H](O)[C@](O)(C(=O)CO)[C@@]3(C)C[C@H](O)[C@@]12F` [Triamcinolone], in the series on rat [19] (setting [44]), the LEL was found to be 10 mg/kg/day and the NEL was below 10 mg/kg/day. Besides, in the series on rat [19] (setting [45]), the LOAEL was above 40 mg/kg/day and the NOAEL was at least 40 mg/kg/day.

As to `CC1(C)[C@H](C(=O)O[C@H](C#N)c2cccc(Oc3ccccc3)c2)[C@@H]1/C=C(\Cl)C(F)(F)F` [gamma-Cyhalothrin], in the series on rat [20] (setting [46]), the lowest observed adverse effect level (LOAEL) amounted to 6.6 mg/kg/day, the NEL came out at 0.7 mg/kg/day and the NOAEL worked out at 3.4 mg/kg/day. This compound displayed an LEL in the series on rat [20] (systemic / organ weight / liver / relative to body weight) of 3.4 mg/kg/day.
